# In patent US20210346319A1, “Pharmaceutical Compositions of R-(+)-Propranolol in Enantiomeric Excess and Therapeutic Uses Related Thereto” (Emory University, priority 2018, published 2021):
# “Also recorded” adds a separate entry of the source.
# Columns and labels:
# Angptl4 [1] = experiment: Gene array of treated hemangioma stem cells (HemSC); format: cell-based, human; conditions: for Angptl4 gene regulation on gene array: HemSC cells vs vehicle control; for effectiveness in downregulating Angptl4 compared with S-propranolol: hemangioma stem cells
# Angptl4 [2] = experiment: Western blot analysis of Angptl4 in HemSC cells
# Angptl4 [3] = conditions: bEnd.3 cells, FIG. 1
# bEnd.3 hemangioma = bEnd.3 hemangioma xenograft growth in nude mice; format: in vivo; conditions: p=0.014
# Protocol: The xenograft model was developed and approved by the Institutional Animal Care and Use Committee of Emory University. bEnd.3 cell suspension in growth medium was inoculated in the right flank of athymic Nu/Nu nude male mice purchased from the Charles River Laboratories at 2.5×10^5 cells/mouse (n=5 per group). Control or R-propranolol was administered intraperitoneally five times a week at 3.5 mg/kg/day. R-propranolol treatment was initiated on the second day after the tumor cell injection.
# To elucidate the signaling cascade independent of beta blockade in hemangioma formation, tie-2-deficient mouse hemangioma cell line, bEnd.3 was xenografted and treated with or without R-propranolol, isomer deficient in beta blockade activity.
# bEnd.3 tumors = experiment: RNAseq analysis of R-propranolol vs vehicle treated tumors; format: in vivo, mice
# Description: In order to gain an understanding of the mechanism of action of R-propranolol in vivo, vehicle and R-propranolol treated tumors were subjected to RNA seq analysis. […] The APOA1 gene expresses a protein called apolipoprotein A-I (apoA-I). ApoA-I is a component of high-density lipoprotein (HDL) which transports cholesterol and phospholipids through the bloodstream for excretion by the liver beneficial for cardiovascular health.
# Angptl4 [4] = experiment: Downregulation of VEGF/Angptl4 by propranolol and its isomers (summary statements); format: cell-based
# bEnd.3 hemangioma cells = experiment: Seahorse analysis of respiration in bEnd.3 cells; conditions: for basal respiration / spare respiratory capacity: FIG. 5B; for maximal respiration: compared to vehicle control
# VEGF = VEGF levels in infants receiving propranolol for hemangioma of infancy; format: in vivo, human; conditions: saliva of infants with hemangiomas, hydrochloride
# Description: (§1) Genetic studies of hemangiomas have not elucidated a common genetic cause, as opposed to other vascular lesions, such as vascular malformations and angiosarcomas, in which genetic mutations have been found. Cytokines have been found in hemangiomas of infancy, including vascular endothelial growth factor (VEGF) and Angiopoietin-2 (Ang-2). The role of these factors in hemangiomas are not fully understood, especially given that Ang-2 can serve as a growth factor or mediate endothelial apoptosis depending on the context. A series of infants were studied who received propranolol for treatment of hemangioma of infancy.
# Angiopoietin-2 (Ang-2) = experiment: Ang-2 levels in infants receiving propranolol for hemangioma of infancy; format: in vivo, human; conditions: saliva of infants with hemangiomas
# Description: as §1
# hemangioma of infancy = conditions: infant who received propranolol for cardiac disease; cited from earlier work
# [5] = RNAseq treated vs vehicle tumors
smiles,measurement,setting,value
CN(C)c1ccc(C(=C2C=CC(=[N+](C)C)C=C2)c2ccc(N(C)C)cc2)cc1 [gentian violet],Angptl4 gene regulation on gene array,Angptl4 [1],downregulated; also recorded: most regulated gene
same,"Angptl4 expression, Western blot",Angptl4 [2]; FIG. 1,suppressed Angptl4
same,"Angptl4 expression, Western blot","Angptl4 [2]; FIG. 1, listed as Gentian violet",downregulated Angptl4
same,Angptl4 protein expression,Angptl4 [3],much reduced
"CC(C)NC[C@@H](O)COc1cccc2ccccc12 [R-propranolol, (R)-(+)-1-(isopropylamino)-3-(naphthalen-1-yloxy)propan-2-ol]",Angptl4 gene regulation on gene array,Angptl4 [1],downregulated; also recorded: most regulated gene
same,effectiveness in downregulating Angptl4 compared with S-propranolol,Angptl4 [1],far more effective
same,effectiveness in downregulating Angptl4 compared with S-propranolol,Angptl4 [1]; listed as R(+)-propranolol,More Effective
same,tumor volume,"bEnd.3 hemangioma; 3.5 mg/kg/day intraperitoneally five times a week, control 593.32, n=5 per group",37.60 mm3
same,effect on bEnd.3 hemangioma tumor growth in vivo,"bEnd.3 hemangioma; xenograft in mice, within two weeks of tumor development",active in vivo; also recorded: significant tumor volume reduction; also recorded: significantly reduced the tumor volume; also recorded: inhibited the growth; also recorded: significant inhibition of tumor growth
same,APOA1 expression,bEnd.3 tumors; [5],induced; also recorded: upregulated
same,BHMT expression,bEnd.3 tumors; [5],most highly regulated gene; also recorded: upregulated; also recorded: most upregulated
same,Egr-1 expression,bEnd.3 tumors; [5],elevated; also recorded: upregulated
same,choline metabolism pathway (KEGG analysis),bEnd.3 tumors; [5],the pathway affected; also recorded: highly affected
same,Eno4 expression,"bEnd.3 tumors; RNAseq, FIG. 4",downregulated
same,Faim2 expression,"bEnd.3 tumors; RNAseq, FIG. 4",downregulated
same,Hunk expression,"bEnd.3 tumors; RNAseq, FIG. 4",downregulated
same,number of RNA transcripts significantly downregulated,"bEnd.3 tumors; RNAseq, FIG. 4",Seven
same,number of RNA transcripts upregulated,"bEnd.3 tumors; RNAseq, FIG. 4",seventeen
same,activity against Angptl4 compared with S-propranolol,Angptl4 [4]; endothelial cells,greater downregulation; also recorded: more active
same,"Angptl4 expression, Western blot",Angptl4 [2]; FIG. 1,reduced expression of Angptl4
same,"Angptl4 expression, Western blot","Angptl4 [2]; FIG. 1, listed as R-isomer",suppressed Angptl4
same,respiration compared with S-propranolol,bEnd.3 hemangioma cells; FIG. 5A,stronger respiration
same,basal respiration,bEnd.3 hemangioma cells,increased
same,spare respiratory capacity,bEnd.3 hemangioma cells,increased
same,maximal respiration,bEnd.3 hemangioma cells; FIG. 5A,substantially increased
same,Angptl4 protein expression,Angptl4 [3],markedly reduced
"CC(C)NCC(O)COc1cccc2ccccc12 (stereo not drawn) [S-propranolol, reference compound]",Angptl4 gene regulation on gene array,Angptl4 [1],downregulated; also recorded: most regulated gene
same,"Angptl4 expression, Western blot",Angptl4 [2]; FIG. 1,not
same,"Angptl4 expression, Western blot","Angptl4 [2]; FIG. 1, listed as S isomer",had no effect
same,basal respiration,bEnd.3 hemangioma cells,increased
same,spare respiratory capacity,bEnd.3 hemangioma cells,increased
same,maximal respiration,bEnd.3 hemangioma cells; FIG. 5A,substantially increased
same,Angptl4 protein expression,Angptl4 [3],slightly elevated
"CC(C)NCC(O)COc1cccc2ccccc12.Cl (racemic) [propranolol, (±)-1-[(1-methylethyl)amino]-3-(1-naphthalenyloxy)-2-propanol hydrochloride]",N4RA1 (Nur77) expression,bEnd.3 tumors; [5],upregulated
same,VEGF levels,VEGF,reduced
same,VEGF levels,VEGF; listed as Propranolol,downregulates
same,Ang-2 levels,Angiopoietin-2 (Ang-2),not
same,VEGF/Angplt4 downregulation,Angptl4 [4],coordinately downregulates
same,"hemangioma of infancy, clinical course",hemangioma of infancy,regression
